The values that follow come from patent publication US5792635A, “Method of inhibiting the sodium/proton exchanger NHE3 and method of inhibiting growth by administering squalamine” (priority 1995, dated 1998).

≈ marks a conversion by molar mass, not a printed value.

The subject of one assay is S. aureus. The assay can be described thus: Antibiotic activity, MIC. In kind it is cell-based. To be noted: for MIC: Staphylococcus aureus.
The subject of a further assay is E. Coli. The experiment in a line: Antibiotic activity, MIC. In kind it is cell-based. The conditions noted are these: for MIC: Escherichia coli.
Another assay concerns C. albicans. The assay can be described thus: Antibiotic activity, MIC. In kind it is cell-based. The conditions noted are these: for MIC: Candida albicans.
The next assay relates to chick embryo. The assay can be described thus: Chick embryo diss. assay (Table II). In kind it is in vivo. On the procedure: Using the chick embryo vitelline capillaries assay, compounds were tested for their ability to induce capillary regression. Each compound was applied in 0.1 ml of 15% Ficol 400 and PBS onto the embryo, and vascular regression was assessed after 60 minutes.

A further assay has as its system Xenopus tadpoles. The assay can be described thus: Tadpole assay. To be noted: Xenopus tadpole assay.

For `CC(C)CCC[C@@H](C)[C@H]1CC[C@H]2[C@@H]3CC[C@H]4C[C@H](NCCCN5CCCCN=C5N)CC[C@]4(C)[C@H]3CC[C@]12C`, the “MIC Values” with S. aureus is 2 µg/mL (≈ 3.7 µM); in the assay with E. Coli, greater than 256 µg/mL; in the assay on C. albicans, 32 µg/mL (≈ 59.2 µM). `CC(COS(=O)(=O)O)C(=O)CC[C@@H](C)[C@H]1CC[C@H]2[C@@H]3[C@H](O)C[C@H]4C[C@@H](NCCCNCCCCN)CC[C@]4(C)[C@H]3CC[C@]12C` (stereo partly shown): 8 µg/mL (≈ 12.5 µM) was the least that counted as inhibitory with S. aureus (MIC). With `C=C(C)C(=O)CCC(C)[C@H]1CCC2C3C(CC[C@@]21C)[C@@]1(C)CC[C@H](NCCCNCCCCN)C[C@@H]1C[C@H]3O` (stereo partly shown), the minimal inhibitory concentration (MIC) (in general, the lowest concentration that inhibits growth of the organism) in the assay on S. aureus worked out at 4 µg/mL (≈ 7.35 µM); in the assay on E. Coli, 32 µg/mL (≈ 58.8 µM); against C. albicans it was 4 µg/mL (≈ 7.35 µM). As for `CC(C)CCCC(C)[C@H]1CCC2C3C(CC[C@@]21C)[C@@]1(C)CC[C@@H](N)C[C@@H]1C[C@H]3O` (stereo partly shown), the minimal inhibitory concentration (MIC) against S. aureus was 2 µg/mL (≈ 4.95 µM); in the assay with E. Coli, greater than 256 µg/mL; in the assay on C. albicans, 2 µg/mL (≈ 4.95 µM). For the compound `CC(CCC(=O)O)[C@H]1CCC2C3C(CC[C@@]21C)[C@@]1(C)CC[C@@H](NCCN)C[C@H]1C[C@H]3O` (stereo partly shown), the MIC in the assay with S. aureus stood at 32 µg/mL (≈ 73.6 µM); against E. Coli, 64 µg/mL (≈ 147 µM); against C. albicans, 64 µg/mL (≈ 147 µM). In the case of `COC(=O)CCC(C)[C@H]1CCC2C3C[C@@H](O)[C@H]4C[C@@H](NCCN)CC[C@]4(C)C3CC[C@@]21C` (stereo partly shown), the values for the minimal inhibitory concentration (MIC) against S. aureus, in the assay on E. Coli and against C. albicans were 1 µg/mL (≈ 2.23 µM), 8 to 16 µg/mL (≈ 17.8 to 35.7 µM) and 2 to 4 µg/mL (≈ 4.46 to 8.91 µM), respectively. Take `COC(=O)CCC(C)[C@H]1CCC2C3C[C@@H](O)[C@H]4C[C@H](NCCCNCCCCNCCCN)CC[C@]4(C)C3CC[C@@]21C` (stereo partly shown): the results for the MIC against S. aureus, against E. Coli and in the assay on C. albicans were 2 to 4 µg/mL (≈ 3.38 to 6.77 µM), 32 µg/mL (≈ 54.2 µM) and 4 µg/mL (≈ 6.77 µM), respectively. As for `CC(CCC(=O)O)[C@H]1CCC2C3C[C@@H](O)[C@H]4C[C@@H](NCCCNCCCCNCCCN)CC[C@]4(C)C3CC[C@@]21C` (stereo partly shown), the MIC with S. aureus worked out at 16 µg/mL (≈ 27.7 µM); with E. Coli it was 16 µg/mL (≈ 27.7 µM); in the assay on C. albicans it was 4 µg/mL (≈ 6.93 µM).

Turning to `CC(C)CCC[C@@H](C)[C@H]1CC[C@H]2[C@@H]3CC[C@H]4C[C@H](NCCCNCCCCNCCCN)CC[C@]4(C)[C@H]3CC[C@]12C`, the “Minimum Effective Concentration, chick embryo diss. assay” value with chick embryo was greater than 10 µg. In the case of `CC(CCCOS(=O)(=O)O)[C@H]1CCC2C3CC[C@H]4C[C@@H](NCCCNCCCCN)CC[C@]4(C)C3CC[C@@]21C` (stereo partly shown), the “Minimum Effective Concentration, chick embryo diss. assay” value with chick embryo was greater than 10 µg. As to `CC(C)CCC[C@@H](C)[C@H]1CC[C@H]2[C@@H]3[C@H](O)C[C@H]4C[C@H](NCCCNCCCCN)CC[C@]4(C)[C@H]3CC[C@]12C` [Compound 370], the “functional similarity in tadpole assay” value in the assay on Xenopus tadpoles is reported as “pharmacologic activity similar to that seen for FX 3”. The same measure, in the same setting: with `CC(C)CCC[C@@H](C)[C@H]1CC[C@H]2[C@@H]3[C@H](O)C[C@H]4C[C@@H](NCCCNCCCCN)CC[C@]4(C)[C@H]3CC[C@]12C` [Compound 371] the entry was “effects like those produced by compound 1436”; with `COC(=O)CC[C@@H](C)[C@H]1CC[C@H]2[C@@H]3[C@H](O)C[C@@H]4C[C@H](NCCN)CC[C@]4(C)[C@H]3CC[C@]12C` [Compound 410], “functionally similar to compound 1437”. `COC(=O)CC[C@@H](C)[C@H]1CC[C@H]2[C@@H]3CC[C@@H]4C[C@H](NCCN)CC[C@]4(C)[C@H]3C[C@H](O)[C@]12C` [Compound 416]: the “functional similarity in tadpole assay” value in the assay on Xenopus tadpoles is on record as “functionally similar to compound 1437”.

For the compound `COC(=O)CC[C@@H](C)[C@H]1CC[C@H]2[C@@H]3C[C@@H](O)[C@H]4C[C@H](NCCN)CC[C@]4(C)[C@H]3CC[C@]12C` [Compound 431], the “functional similarity in tadpole assay” value in the assay on Xenopus tadpoles is on record as “functionally similar to compound 1437”.

In the case of `COC(=O)CC[C@@H](C)[C@H]1CC[C@H]2[C@@H]3C[C@@H](O)[C@H]4C[C@@H](NCCN)CC[C@]4(C)[C@H]3CC[C@]12C` [Compound 432], in the assay with Xenopus tadpoles, the “functional similarity in tadpole assay” value is “functionally similar to compound 1437”. As for `C[C@H](CCC(=O)O)[C@H]1CC[C@H]2[C@@H]3C[C@@H](O)[C@H]4C[C@@H](NCCN)CC[C@]4(C)[C@H]3CC[C@]12C` [Compound 433], the “functional similarity in tadpole assay” value in the assay with Xenopus tadpoles is “functionally similar to compound 1437”. For the compound `COC(=O)CC[C@@H](C)[C@H]1CC[C@H]2[C@@H]3CC[C@H]4C[C@H](NCCCNCCCCNCCCN)CC[C@]4(C)[C@H]3CC[C@]12C` [Compound 458], the “functional similarity in tadpole assay” value in the assay on Xenopus tadpoles is “pharmacologic activity similar to that seen for FX 3”.

Regarding `COC(=O)CC[C@@H](C)[C@H]1CC[C@H]2[C@@H]3CC[C@H]4C[C@@H](NCCCNCCCCNCCCN)CC[C@]4(C)[C@H]3CC[C@]12C` [Compound 459], in the assay on Xenopus tadpoles, the “functional similarity in tadpole assay” value is listed as “pharmacologic activity similar to that seen for FX 3”.

Take `COC(=O)CC[C@@H](C)[C@H]1CC[C@H]2[C@@H]3C[C@@H](O)[C@H]4C[C@H](NCCCNCCCCNCCCN)CC[C@]4(C)[C@H]3CC[C@]12C` [Compound 465]: in the assay with Xenopus tadpoles, the “functional similarity in tadpole assay” value is “pharmacologic activity similar to that seen for FX 3”.
